From US20100285959A1, “HERBICIDAL MIXTURES” (priority 2006, published 2010)

Tests used:
field violet (VIOAR) = assay: Test 24 growth chamber, postemergence; type: in vivo, Viola arvensis; settings: 17 DAA
Experimental: Plants were treated postemergence at the 2-4 leaf growth stage, and each treatment was replicated three times. […] Plants were watered as needed. […] Results for barley and wheat are the means across varieties of the three replicates, and results for the weeds are the means of the three replicates.

common ragweed (AMBEL) = assay: Test 26 field trial, postemergence; type: in vivo, Ambrosia artemisiifolia; parameters: scale not given here
Excerpt: Corn seeds (hybrid ‘Pioneer 31G96’) were planted in mid spring season, 3.8 cm deep in a silt loam soil having 2% organic matter and a pH of 6.6. Plots were 6.1 m long by 3.0 m wide with rows spaced 76 cm apart. Seeds were spaced 15 cm apart within the rows. The field was managed using conventional tillage practices. […] All treatments also included a surfactant. […] Some of the weed species could not be evaluated at every timing. […] Results are the means of the three replicates.

kochia (KCHSC) = assay: Test 4 field trial, postemergence; type: in vivo, Kochia scoparia
Experimental: A field trial was conducted to evaluate the effects of mixtures of Compound 2 with commercial herbicides on spring wheat (TRZAS, Triticum aestivum L.) and several weed species. Wheat seeds (cv. ‘AC Intrepid’) were planted in late spring season, 3.8 cm deep in a loam soil having 2.7% organic matter and a pH of 7. Plots were 6 m long by 2.5 m wide. The field was managed using no-till practices. The plots were arranged in a randomized complete block design with each treatment being replicated four times. Treatments were applied postemergence 25 days after planting using a backpack sprayer delivering a spray volume of 55 L/ha using a pressure of 276 kPa. […] Compound 2 and clodinafop treatments, alone and in combination, also included a surfactant. Weed species present in the experimental plots in sufficient quantity to be evaluated included wild oat (AVEFA, Avena fatua L.), common lambsquarters (CHEAL, Chenopodium album L.), kochia (KCHSC, Kochia scoparia (L.) Schrad.), wild buckwheat (POLCO, Polygonum convolvulus L.), Russian thistle (SASKR, Salsola kali L. ssp. ruthenica (Iljin) Soo), and field pennycress (THLAR, Thlaspi arvense L.). […] Common lambsquarters was evaluated only at 14 days after application. […] Results are the means of the four replicates.

velvetleaf (ABUTH) [1] = assay: Test 25 field trial, postemergence, growth as percent of control; type: in vivo, Abutilon theophrasti
Excerpt: (§1) Corn seeds (hybrid ‘Pioneer 31G96 RR’) were planted in mid spring season, 3.8 cm deep in a clay loam soil having 2% organic matter and a pH of 6.6. Plots were 6.1 m long by 3.0 m wide with rows spaced 76 cm apart. Seeds were spaced 15 cm apart within the rows. The field was managed using conventional tillage practices. […] Giant ragweed and Pennsylvania smartweed could only be evaluated 14 days after application. […] Results are the means of the three replicates. This growth inhibition data was converted to results in the form of “plant growth as a percent of control plant growth” using the calculation “100 minus growth inhibition”.
(§2) When this form of Colby's Equation is used, if the observed effects on weeds are less than the expected values, the mixture is synergistic.

[2] = tested on: common lambsquarters (CHEAL); assay: as above; type: in vivo, Chenopodium album
Excerpt: as §1, §2

velvetleaf (ABUTH) [3] = assay: Test 16 greenhouse, post- and preemergence; settings: 15 DAA

In the case of `COC(=O)c1nc(C2CC2)nc(N)c1Cl` [Compound 2, methyl 6-amino-5-chloro-2-cyclopropyl-4-pyrimidinecarboxylate], the “VIOAR Obs (scale 0 to 100)” value (field violet (VIOAR); Cpd 2 4 g a.i./ha) is reported as 47, the “VIOAR Obs (scale 0 to 100)” value (field violet (VIOAR); Cpd 2 8 g a.i./ha) is reported as 62 and the “VIOAR Obs (scale 0 to 100)” value (field violet (VIOAR); Cpd 2 16 g a.i./ha) is reported as 72. The “AMBEL Obs” value (common ragweed (AMBEL); 14 DAA, 30 g a.i./ha) was 94, the “AMBEL Obs” value (common ragweed (AMBEL); 14 DAA, 45 g a.i./ha) was 67 and the “AMBEL Obs” value (common ragweed (AMBEL); 14 DAA, 60 g a.i./ha) was 98. For the same molecule, the “AMBEL Obs” value (common ragweed (AMBEL); 28 DAA, 30 g a.i./ha) was 88, the “AMBEL Obs” value (common ragweed (AMBEL); 28 DAA, 45 g a.i./ha) was 95 and the “AMBEL Obs” value (common ragweed (AMBEL); 28 DAA, 60 g a.i./ha) was 98. The “AMBEL Obs” value (common ragweed (AMBEL); 56 DAA, 30 g a.i./ha) was 73, the “AMBEL Obs” value (common ragweed (AMBEL); 56 DAA, 45 g a.i./ha) was 95 and the “AMBEL Obs” value (common ragweed (AMBEL); 56 DAA, 60 g a.i./ha) was 95. The “KCHSC Obs” value (kochia (KCHSC); 14 DAA, Cpd 2 30 g a.i./ha alone or with clodinafop 56 or fenoxaprop 90) was 95, the “KCHSC Obs” value (kochia (KCHSC); 35 DAA, Cpd 2 30 g a.i./ha alone or with clodinafop 56 or fenoxaprop 90) was 99 and the “KCHSC Obs” value (kochia (KCHSC); 35 DAA, Cpd 2 60 g a.i./ha alone) was 96. For the same molecule, the “ABUTH Obs (percent of control)” value (velvetleaf (ABUTH) [1]; Cpd 2 15 g a.i./ha, 14 DAA) was 70%, the “ABUTH Obs (percent of control)” value (velvetleaf (ABUTH) [1]; Cpd 2 15 g a.i./ha, 28 DAA) was 72% and the “ABUTH Obs (percent of control)” value (velvetleaf (ABUTH) [1]; Cpd 2 15 g a.i./ha, 56 DAA) was 62%. For the same molecule, the “ABUTH Obs (percent of control)” value (velvetleaf (ABUTH) [1]; Cpd 2 30 g a.i./ha, 14 DAA) was 45%, the “ABUTH Obs (percent of control)” value (velvetleaf (ABUTH) [1]; Cpd 2 30 g a.i./ha, 28 DAA) was 53% and the “ABUTH Obs (percent of control)” value (velvetleaf (ABUTH) [1]; Cpd 2 30 g a.i./ha, 56 DAA) was 28%. The “ABUTH Obs (percent of control)” value (velvetleaf (ABUTH) [1]; Cpd 2 45 g a.i./ha, 14 DAA) was 37%, the “ABUTH Obs (percent of control)” value (velvetleaf (ABUTH) [1]; Cpd 2 45 g a.i./ha, 28 DAA) was 40% and the “ABUTH Obs (percent of control)” value (velvetleaf (ABUTH) [1]; Cpd 2 45 g a.i./ha, 56 DAA) was 20%. The “CHEAL Obs (percent of control)” value ([2]; Cpd 2 15 g a.i./ha, 14 DAA) was 15%, the “CHEAL Obs (percent of control)” value ([2]; Cpd 2 15 g a.i./ha, 28 DAA) was 2% and the “CHEAL Obs (percent of control)” value ([2]; Cpd 2 15 g a.i./ha, 56 DAA) was 0%. The “CHEAL Obs (percent of control)” value ([2]; Cpd 2 30 g a.i./ha, 14 DAA) was 20%, the “CHEAL Obs (percent of control)” value ([2]; Cpd 2 30 g a.i./ha, 28 DAA) was 1% and the “CHEAL Obs (percent of control)” value ([2]; Cpd 2 30 g a.i./ha, 56 DAA) was 0%. The “CHEAL Obs (percent of control)” value ([2]; Cpd 2 45 g a.i./ha, 14 DAA) was 7%, the “CHEAL Obs (percent of control)” value ([2]; Cpd 2 45 g a.i./ha, 28 DAA) was 0% and the “CHEAL Obs (percent of control)” value ([2]; Cpd 2 45 g a.i./ha, 56 DAA) was 0%. The “Obs response, scale 0 to 100” value (velvetleaf (ABUTH) [3]; Postemergence, 15 g a.i./ha) was 33, the “Obs response, scale 0 to 100” value (velvetleaf (ABUTH) [3]; Postemergence, 30 g a.i./ha) was 38 and the “Obs response, scale 0 to 100” value (velvetleaf (ABUTH) [3]; Postemergence, 45 g a.i./ha) was 61. The “Obs response, scale 0 to 100” value (velvetleaf (ABUTH) [3]; Preemergence, 15 g a.i./ha) was 23, the “Obs response, scale 0 to 100” value (velvetleaf (ABUTH) [3]; Preemergence, 30 g a.i./ha) was 38 and the “Obs response, scale 0 to 100” value (velvetleaf (ABUTH) [3]; Preemergence, 45 g a.i./ha) was 42.
